Experimental data from patent US20090258030A1, “Materials and Methods for Improving Livestock Productivity” (priority 2006, published 2009).
Counter-ions that a name gives are not always drawn. Marks after values point to notes of the source that are not given here.

Legend:
[1] = Effect of cysteamine compound on crossbreed sheep (Example 6); assay type: in vivo
[2] = Efficacy of cysteamine hydrochloride on sow and their weaning piglets performance (Example 9); assay type: in vivo, swine (crossbred Yolkshire and Lanrace sows); settings: for Total of pigs born: 10 sows from 84 days gestation; for Av. of milk yield, L/d: calculated from average daily gain of piglets × 4 × no of piglets in each litter; for Total number of piglets at weaning: weaned at 21 days
Source text: All sows used in the experiment were crossbred (Yolkshire and Lanrace) selected from the 3rd and the 4^Th (ratio 4:6) pregnancy. Thirty sows (84 days gestation) were equally allocated into three treatments and each treatment of sows were divided into 10 replications with each sow per replication.
Cysteamine Hydrochloride was included to sow feeds at 135 ppm or 190 ppm. The diets were fed in mash form, water was allowed ad libitum. Litter size, litter weights, number of piglets born alive and weaned were recorded. Morbidity, incidence of diarrhea and mortality rates were recorded. Piglet's uniformity was accounted as percentage units that fell into two times of standard deviation based on average weaning live weight. The piglets from each sow were weaned at 21 days of age. On day 109 of gestation, sows were moved to farrowing units and were weight after farrowing and also weighed again after lactation. Back fat losses were measured every weeks during lactation period by using Renco Lean-Meter (Ultrasound for Ultra-profits, Renco Corporation, Minnesota, 55401, USA). Sows were fed about 2 kg/day during 16-84 days, 3 kg/day until farrowing and fed ad libitum during lactation period.
All sows were housed in cages adjacent to the boar's area and serviced by artificial insemination twice at 18 hours interval with the checked quality semen of the same boar. After 1 week service, they were weighed and moved to individual gestation cages. Five days prior to the date of parturition, they were moved to the farrowing units for setting in and staying till piglets weaning. After piglets weaning each sow was moved again to the service area.
All sows and piglets were subject to the usual vaccination program, antiparasitic treatment, iron injection and tail docking for piglets. An individual treatment was done if a disease or injury was developed during the trial, under the authority of the veterinary in charge of the farm animal health.

[3] = Daily weight gain and feed conversion rate of beef cattle (Example 5); assay type: in vivo, beef cattle (Ximenta'er hybridizing beef cattle)
Description: In the following example, the test animals were beef cattle (Ximenta'er hybridizing beef cattle). The experiment was performed at the Hebei Hengshui Geling Beef Cattle Raising Farm dur the period from Oct. 10 to Dec. 21, 2002. In total, 64 heads of around 350 kg Ximenta'er hybridizing beef cattle were selected and separated into 4 groups randomly according to the principle of equalizing age, weight, grace, fur/hair condition, etc. Each group had 16 heads of beef cattle. The Control Group, Test Group I, II & III were fed a composition comprising 0, 1.5, 3, 6 g/head/day of cysteamine HCl, respectively. As noted in Tables 8, 9, and 10 below, adding a cysteamine compound to the basal diet of beef cattle can increase daily weight gain.

[4] = Effect of cysteamine compound on small-fat-tail sheep (Example 6); assay type: in vivo
Source text: In the following example, the test animals were sheep (small-fat-tail sheep). In total, 40 heads of small-fat-tail sheep with the average weight of 26.5 kg were randomly divided into Control group (20) and Cysteamine group (20). The control group was fed with basal diet only, while the Cysteamine group was fed a diet that included 900 g cysteamine HCl per tonnage of diet. The standard basal diet of the farm was employed for this trial.

[5] = Effect of cysteamine hydrochloride on productivity of pregnant pig sows (Example 1); assay type: in vivo, swine (D×L×M hybrid swine)
Source text: A total of 14 heads of pregnant pig sow (which were the offspring of Duroc×Landrace×Meishan swine, also referred to herein as D×L×M hybrid swine) (84 days of pregnant) were divided into 2 groups: Control group (6) and Cysteamine group (8). The Control group was fed with basal diet. […]

[6] = 900 g cysteamine HCl per tonnage of diet, after 35 days
[7] = 900 g/tonnage, 35 days, 20 head
[8] = 900 g/tonnage, 35 days, vs control
[9] = feed consumed, 900 g/tonnage, 35 days, 20 head
[10] = T2: 0.0135 (135 ppm in sow feed)
[11] = T3: 0.019 (190 ppm in sow feed)
[12] = 150 g cysteamine hydrochloride per ton feed, after 49 days, vs control
[13] = late phase pregnant sow, dosage 500 g/T, from 84 days of pregnant to weaning

For `NCCS` [Cysteamine Hydrochloride, cysteamine hydrochloride], the “amount of silage necessary in raising the sheep” value [1, 6] was “reduction”, the “weight (ADG) vs control” value [1, 6] was “statistically significant increase” and the “ADG (g/head/day)” value ([1]; 900 g/tonnage, 35 days) was 82.29 g/head/day. The “Final weight (kg/head)” value ([1]; 900 g/tonnage, 35 days) was 29.59 kg/head, the “Weight gain (kg/head)” value ([1]; 900 g/tonnage, 35 days) was 2.88 kg/head and the “Total feed consumption” value [1, 7] was 1001.2 kg. For the same molecule, the “ADG: Improvement (%)” value [1, 8] was 46.2%, the “Silage: Improvement (%)” value [1, 8] was −5.14% and the “Weight gain: Improvement (%)” value [1, 8] was 46.2%. For the same molecule, the “Concentrate” value [1, 9] was 245 kg, the “Hay” value [1, 9] was 350.0 kg and the “Silage” value [1, 9] was 406.2 kg. The “Av. birth weight of piglets, kg” value [2, 10] was 1.737^a kg, the “Av. daily feed intake of sow during lactation, kg” value [2, 10] was 5.88^a kg and the “Av. daily gain of piglets” value [2, 10] was 355 g. For the same molecule, the “Av. feed intake per piglets” value [2, 10] was 179 g, the “Av. live weight of piglets at weaning” value [2, 10] was 7.45 kg and the “Av. number of piglets born alive per litter” value [2, 10] was 11.10. For the same molecule, the “Av. of piglet born per litter” value [2, 10] was 11.60, the “Av. overall weight loss of sow during lactation, kg” value [2, 10] was 14.25^b kg and the “Av. total birth weight of piglet per litter, kg” value [2, 10] was 19.10^a kg. For the same molecule, the “Back fat loss of sow during lactation, mm: Overall” value [2, 10] was 0.867^b mm, the “Back fat loss of sow during lactation, mm: Week 1” value [2, 10] was 0.165^b mm and the “Back fat loss of sow during lactation, mm: Week 2” value [2, 10] was 0.588^b mm. The “Back fat loss of sow during lactation, mm: Week 3” value [2, 10] was 0.114^b mm, the “Number of piglet weaning per litter” value [2, 10] was 10.20 and the “Survival rate of piglets at weaning, %” value [2, 10] was 91.90%. For the same molecule, the “Total number of piglet born alive per litter” value [2, 10] was 111, the “Total weight of piglets at weaning per litter, kg” value [2, 10] was 76.02^ab kg and the “Uniformity of live weight at weaning, %” value [2, 10] was 86.68^a %. The “Total of pigs born” value [2, 10] was 116, the “Av. of milk yield, L/d” value [2, 10] was 14.48^ab L/d and the “Total number of piglets at weaning” value [2, 10] was 102. For the same molecule, the “Av. birth weight of piglets, kg” value [2, 11] was 1.782^a kg, the “Av. daily feed intake of sow during lactation, kg” value [2, 11] was 6.07^a kg and the “Av. daily gain of piglets” value [2, 11] was 366 g. The “Av. feed intake per piglets” value [2, 11] was 183 g, the “Av. live weight of piglets at weaning” value [2, 11] was 7.68 kg and the “Av. number of piglets born alive per litter” value [2, 11] was 10.70. The “Av. of piglet born per litter” value [2, 11] was 11.50, the “Av. overall weight loss of sow during lactation, kg” value [2, 11] was 13.58^b kg and the “Av. total birth weight of piglet per litter, kg” value [2, 11] was 18.88^a kg. The “Back fat loss of sow during lactation, mm: Overall” value [2, 11] was 0.829^b mm, the “Back fat loss of sow during lactation, mm: Week 1” value [2, 11] was 0.171^b mm and the “Back fat loss of sow during lactation, mm: Week 2” value [2, 11] was 0.548^b mm. For the same molecule, the “Back fat loss of sow during lactation, mm: Week 3” value [2, 11] was 0.110^b mm, the “Number of piglet weaning per litter” value [2, 11] was 10.40 and the “Survival rate of piglets at weaning, %” value [2, 11] was 97.20%. The “Total number of piglet born alive per litter” value [2, 11] was 107, the “Total weight of piglets at weaning per litter, kg” value [2, 11] was 79.42^a kg and the “Uniformity of live weight at weaning, %” value [2, 11] was 86.95^a %. The “Total of pigs born” value [2, 11] was 115, the “Av. of milk yield, L/d” value [2, 11] was 15.13^a L/d and the “Total number of piglets at weaning” value [2, 11] was 104. For the same molecule, the daily weight gain ([3]; Test Group III: 6 g/head/day, p<0.05 vs Control, Test Group I & II) was 1.217 kg, the “Feed Conversion Rate (FCR): Concentrated feed” value ([3]; Test I: 1.5 g/head/day) was 3.54 and the “Feed Conversion Rate (FCR): Corn Silage” value ([3]; Test I: 1.5 g/head/day) was 14.14. The “Feed Conversion Rate (FCR): Raw Grass” value ([3]; Test I: 1.5 g/head/day) was 1.21, the “Final Wt.” value ([3]; Test I: 1.5 g/head/day) was 423.8 kg and the “Feed Conversion Rate (FCR): Concentrated feed” value ([3]; Test II: 3 g/head/day) was 3.70^a. For the same molecule, the “Feed Conversion Rate (FCR): Corn Silage” value ([3]; Test II: 3 g/head/day) was 14.42^a, the “Feed Conversion Rate (FCR): Raw Grass” value ([3]; Test II: 3 g/head/day) was 1.27^a and the “Final Wt.” value ([3]; Test II: 3 g/head/day) was 420.5 kg. The “Feed Conversion Rate (FCR): Concentrated feed” value ([3]; Test III: 6 g/head/day) was 3.09^b, the “Feed Conversion Rate (FCR): Corn Silage” value ([3]; Test III: 6 g/head/day) was 12.87^b and the “Feed Conversion Rate (FCR): Raw Grass” value ([3]; Test III: 6 g/head/day) was 1.06^a. For the same molecule, the “Final Wt.” value ([3]; Test III: 6 g/head/day) was 432.7 kg, the “amount of silage necessary in raising the sheep” value [4, 6] was “reduction” and the “weight (ADG) vs control” value [4, 6] was “statistically significant increase”. The “Daily weight gain (g/head/day)” value ([4]; 900 g/tonnage, 35 days) was 95.71 g/head/day, the “Final weight (kg/head)” value ([4]; 900 g/tonnage, 35 days) was 28.92 kg/head and the “Weight gain (kg/head)” value ([4]; 900 g/tonnage, 35 days) was 3.350 kg/head. The “Total feed consumption” value [4, 7] was 1019.38 kg, the “Daily weight gain: Improvement (%)” value [4, 8] was 30.9% and the “Silage: Improvement (%)” value [4, 8] was −16.22%. For the same molecule, the “Weight gain: Improvement (%)” value [4, 8] was 30.9%, the “Concentrate” value [4, 9] was 245 kg and the “Hay” value [4, 9] was 350.00 kg. The “Silage” value [4, 9] was 424.38 kg, the “increase in litter weight” value [5, 12] was 13.28% and the “increase in piglet born weight” value [5, 12] was 12.43%. The “increase in weaning weight” value [5, 12] was 8.00%, the “Body weight of weaned piglet (kg/head)” value ([5]; dosage 500 g/T, piglets weaning age 19 days) was 6.21 kg/head and the “Birth weight per litter: Improvement” value ([5]; dosage 500 g/T, vs control) was 2.50 kg. For the same molecule, the “Birth weight per litter: Improvement (%)” value ([5]; dosage 500 g/T, vs control) was 13.28%, the “Birth weight per piglet: Improvement” value ([5]; dosage 500 g/T, vs control) was 0.23 kg/head and the “Birth weight per piglet: Improvement (%)” value ([5]; dosage 500 g/T, vs control) was 12.43%. For the same molecule, the “Body weight of weaned piglet: Improvement” value ([5]; dosage 500 g/T, vs control) was 0.46 kg/head, the “Body weight of weaned piglet: Improvement (%)” value ([5]; dosage 500 g/T, vs control) was 8.00% and the “Live piglet born rate: Improvement” value ([5]; dosage 500 g/T, vs control) was 0.00%. For the same molecule, the “Live piglet born rate: Improvement (%)” value ([5]; dosage 500 g/T, vs control) was 0.00%, the “Birth weight per litter” value [5, 13] was 21.32 kg and the “Birth weight per piglet (kg/head)” value [5, 13] was 2.08 kg/head. For the same molecule, the “Live piglet born per litter (head)” value [5, 13] was 10.29 head, the “Live piglet born rate (%)” value [5, 13] was 100.00% and the “Piglet born per litter (head)” value [5, 13] was 10.29 head. For the same molecule, the “Total live piglet born (head)” value [5, 13] was 82 head and the “Total piglet born (head)” value [5, 13] was 82 head.
